Data from paper PMC8341145 (RSC Chemical Biology, 2021).

Tests used:
Experiment in all cases: CYP inhibition assay
Format in all cases: cell-based
[1] = test system: CYP1A; conditions: read-out: CYP1A
[2] = target: CYP2C9 (Homo sapiens, UniProt P11712)
[3] = target: CYP2D6 (Homo sapiens, UniProt P10635)
[4] = target: CYP2C19 (Homo sapiens, UniProt P33261)
[5] = target: CYP3A4 (Homo sapiens, UniProt P08684)
[6] = target: T1, CYP2C8 (Homo sapiens, UniProt P10632)
T1 sequence (P10632 1-490): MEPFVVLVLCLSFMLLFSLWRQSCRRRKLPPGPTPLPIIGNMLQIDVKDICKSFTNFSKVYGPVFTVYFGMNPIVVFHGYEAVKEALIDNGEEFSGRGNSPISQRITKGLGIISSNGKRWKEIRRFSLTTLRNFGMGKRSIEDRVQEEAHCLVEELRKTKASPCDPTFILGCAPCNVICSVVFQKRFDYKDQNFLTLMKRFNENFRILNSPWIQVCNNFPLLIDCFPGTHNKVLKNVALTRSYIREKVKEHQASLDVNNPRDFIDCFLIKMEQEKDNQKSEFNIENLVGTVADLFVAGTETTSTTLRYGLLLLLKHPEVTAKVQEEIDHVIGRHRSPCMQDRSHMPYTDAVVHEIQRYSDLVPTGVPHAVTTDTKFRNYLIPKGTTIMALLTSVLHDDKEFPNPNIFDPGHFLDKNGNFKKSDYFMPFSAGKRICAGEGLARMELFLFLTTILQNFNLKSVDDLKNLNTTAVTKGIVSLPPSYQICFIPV

CYP2C19, sequence (P33261 whole entry): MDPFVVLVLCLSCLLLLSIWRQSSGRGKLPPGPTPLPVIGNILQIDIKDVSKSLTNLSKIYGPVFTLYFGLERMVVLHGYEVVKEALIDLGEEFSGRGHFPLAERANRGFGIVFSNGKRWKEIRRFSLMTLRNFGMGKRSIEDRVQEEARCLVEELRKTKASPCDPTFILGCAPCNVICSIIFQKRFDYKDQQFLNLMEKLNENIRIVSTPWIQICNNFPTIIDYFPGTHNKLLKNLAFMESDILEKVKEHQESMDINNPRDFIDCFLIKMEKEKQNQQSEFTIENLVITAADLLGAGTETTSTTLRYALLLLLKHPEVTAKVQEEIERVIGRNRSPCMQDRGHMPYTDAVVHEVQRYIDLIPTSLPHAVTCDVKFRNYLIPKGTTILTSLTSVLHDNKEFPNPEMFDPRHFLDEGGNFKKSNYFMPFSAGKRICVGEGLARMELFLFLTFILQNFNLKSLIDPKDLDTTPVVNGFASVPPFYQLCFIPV
CYP2C9, sequence (P11712 whole entry): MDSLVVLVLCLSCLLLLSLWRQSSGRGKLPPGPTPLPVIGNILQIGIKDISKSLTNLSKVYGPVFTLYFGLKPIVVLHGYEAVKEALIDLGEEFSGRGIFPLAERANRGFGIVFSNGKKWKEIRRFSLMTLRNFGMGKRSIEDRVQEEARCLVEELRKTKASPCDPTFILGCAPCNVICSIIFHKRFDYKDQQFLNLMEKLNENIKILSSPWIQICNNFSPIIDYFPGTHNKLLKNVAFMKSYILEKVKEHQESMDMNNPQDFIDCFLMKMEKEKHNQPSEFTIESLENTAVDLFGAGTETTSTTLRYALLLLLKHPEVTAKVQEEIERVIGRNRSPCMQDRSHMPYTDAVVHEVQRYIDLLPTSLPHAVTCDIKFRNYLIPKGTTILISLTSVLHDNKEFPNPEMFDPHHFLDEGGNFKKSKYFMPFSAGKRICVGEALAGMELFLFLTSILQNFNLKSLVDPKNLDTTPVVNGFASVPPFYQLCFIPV
CYP3A4, sequence (P08684 2-503): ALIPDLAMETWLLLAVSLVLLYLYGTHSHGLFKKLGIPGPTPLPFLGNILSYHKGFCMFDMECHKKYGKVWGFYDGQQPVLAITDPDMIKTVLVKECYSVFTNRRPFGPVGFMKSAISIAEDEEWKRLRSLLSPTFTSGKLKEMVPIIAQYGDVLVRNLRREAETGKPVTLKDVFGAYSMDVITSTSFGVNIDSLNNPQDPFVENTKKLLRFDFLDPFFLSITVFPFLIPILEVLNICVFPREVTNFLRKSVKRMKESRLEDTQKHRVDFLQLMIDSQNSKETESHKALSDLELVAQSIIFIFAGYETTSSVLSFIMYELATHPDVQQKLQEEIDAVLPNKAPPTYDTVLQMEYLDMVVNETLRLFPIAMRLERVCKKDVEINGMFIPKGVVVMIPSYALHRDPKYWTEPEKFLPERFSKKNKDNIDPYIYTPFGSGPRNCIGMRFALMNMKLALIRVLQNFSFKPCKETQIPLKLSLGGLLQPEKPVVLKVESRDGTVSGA
CYP2D6, sequence (P10635 whole entry): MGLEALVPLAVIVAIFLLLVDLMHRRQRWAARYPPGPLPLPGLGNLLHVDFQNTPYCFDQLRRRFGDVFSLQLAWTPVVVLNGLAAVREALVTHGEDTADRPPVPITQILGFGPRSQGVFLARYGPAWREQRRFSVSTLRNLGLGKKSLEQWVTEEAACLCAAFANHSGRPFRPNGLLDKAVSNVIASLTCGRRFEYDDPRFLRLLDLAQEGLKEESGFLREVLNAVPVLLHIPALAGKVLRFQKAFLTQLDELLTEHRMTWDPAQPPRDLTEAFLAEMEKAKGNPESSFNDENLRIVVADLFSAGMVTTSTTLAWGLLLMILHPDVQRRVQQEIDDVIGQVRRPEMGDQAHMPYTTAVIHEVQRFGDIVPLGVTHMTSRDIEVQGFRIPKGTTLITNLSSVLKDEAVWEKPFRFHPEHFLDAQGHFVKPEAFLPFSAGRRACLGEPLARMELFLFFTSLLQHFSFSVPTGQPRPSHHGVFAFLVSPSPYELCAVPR

SMILES | IC50 [1] [nM] | IC50 [2] [nM] | IC50 [3] [nM] | IC50 [4] [nM] | IC50 [5] [nM] | IC50 [6] [nM]
CN(C[c-]1cccc1)CC(O)(Cn1cncn1)c1ccc(F)cc1F.Cl.[Fe+2].c1cc[cH-]c1 (stereo not shown) [2a, N-(ferrocenylmethyl)-2-(2,4-difluorophenyl)-2-hydroxy-N-methyl-3-(1H-1,2,4-triazol-1-yl)propan-1-aminium chloride] | 10400 ± 410 | 3330 ± 710 | 2710 ± 120 | < 400 | 400 ± 60 | 640 ± 90
OC(Cn1cncn1)(Cn1cncn1)c1ccc(F)cc1F [Fluconazole] | > 100000 |  |  |  |  | 
